PubChem BioAssay AID296 (DTP/NCI, 2004)
Where “and” joins values, the source holds several entries; their conditions need not be identical. Identical values can stand only once. Results filed as inconclusive are left out.

Test system: MX-1 breast xenograft, nude mice, tumor weight T/C
Assay: NCI In Vivo Anticancer Drug Screen. Data for tumor model Human Mammary Carcinoma MX-1 Xenograft (intrarenal inoculation) in NU/NU Swiss (nude) mice
Conditions: endpoint: mean tumor weight change, higher = larger tumour
Outline: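 Antitumour effect measured in vivo against vehicle controls, expressed as T/C.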

[1] = dose: 1200.0 mg/kg/injection, schedule: Q04DX003 (sc), vehicle: saline with Tween-80
[2] = dose: 300.0 mg/kg/injection, schedule: Q04DX003 (sc), vehicle: saline with Tween-80
[3] = dose: 600.0 mg/kg/injection, schedule: Q04DX003 (sc), vehicle: saline with Tween-80
[4] = dose: 2400.0 mg/kg/injection, schedule: Q04DX003 (sc), vehicle: saline with Tween-80

CC1(C)OC2C(COC(=O)c3ccc([N+](=O)[O-])cc3)OC(NC(=O)N(CCCl)N=O)C2O1 (stereo not drawn)
T/C (dose: 150.0 mg/kg/injection, schedule: Q04DX003 (sc), vehicle: saline with Tween-80): 69 % of control
T/C [1]: 9 % of control

[O-][n+]1c(CN2CCCCC2)nc2cccc3c2c1-c1ccccc1-3
T/C (dose: 300.0 mg/kg/injection, schedule: Q04DX003 (sc), vehicle: Klucel (hydroxypropylcellulose) (HPC)): 94 % of control
T/C (dose: 600.0 mg/kg/injection, schedule: Q04DX003 (sc), vehicle: Klucel (hydroxypropylcellulose) (HPC)): 102 % of control
T/C (dose: 1200.0 mg/kg/injection, schedule: Q04DX003 (sc), vehicle: Klucel (hydroxypropylcellulose) (HPC)): 105 % of control
T/C (dose: 2400.0 mg/kg/injection, schedule: Q04DX003 (sc), vehicle: Klucel (hydroxypropylcellulose) (HPC)): 70 % of control

CNc1cccnc1/C=N/NC(N)=S
T/C [2]: 114 % of control
T/C [3]: 61 % of control
T/C [1]: 55 % of control
T/C [4]: 77 % of control

CCC(=O)Sc1ccccc1C(=O)Nc1ccc(Cl)cc1
T/C [2]: 63 % of control
T/C [3]: 75 % of control
T/C [1]: 58 % of control
T/C [4]: 69 % of control

COc1cc2cc(c1Cl)N(C)C(=O)C[C@H](OC(=O)[C@H](C)N(C)C(C)=O)[C@]1(C)O[C@H]1[C@H](C)[C@@H]1C[C@@](O)(NC(=O)O1)[C@H](OC)C=C/C=C(\C)C2
T/C (dose: 50.0 micrograms/kg/injection, schedule: Q01DX010 (sc), vehicle: Klucel (hydroxypropylcellulose) (HPC)): 99 % of control
T/C (dose: 100.0 micrograms/kg/injection, schedule: Q01DX010 (sc), vehicle: Klucel (hydroxypropylcellulose) (HPC)): 67 % of control
T/C (dose: 200.0 micrograms/kg/injection, schedule: Q01DX010 (sc), vehicle: Klucel (hydroxypropylcellulose) (HPC)): -74 % of control

CC(=O)OCC1OC([S-])C(OC(C)=O)C(OC(C)=O)C1OC(C)=O.CC[PH+](CC)CC.CC[PH+](CC)CC.[Au].[Au] (stereo not drawn)
T/C (dose: 0.32 mg/kg/injection, schedule: Q04DX003 (sc), vehicle: Klucel (hydroxypropylcellulose) (HPC)): 88 % of control
T/C (dose: 0.63 mg/kg/injection, schedule: Q04DX003 (sc), vehicle: Klucel (hydroxypropylcellulose) (HPC)): 112 % of control
T/C (dose: 1.25 mg/kg/injection, schedule: Q04DX003 (sc), vehicle: Klucel (hydroxypropylcellulose) (HPC)): 100 % of control
T/C (dose: 2.5 mg/kg/injection, schedule: Q04DX003 (sc), vehicle: Klucel (hydroxypropylcellulose) (HPC)): 87 % of control

N[C@@H](Cc1ccc(N(CCCl)CCCl)cc1)C(=O)O
T/C (dose: 1.5 mg/kg/injection, schedule: Q04DX003 (sc), vehicle: suspension in saline): 23 % of control and 34 % of control
T/C (dose: 2.0 mg/kg/injection, schedule: Q01DX010 (ip), vehicle: saline): -42 % of control and -36 % of control
T/C (dose: 3.0 mg/kg/injection, schedule: Q04DX003 (sc), vehicle: suspension in saline): 4 % of control and 8 % of control
T/C (dose: 3.33 mg/kg/injection, schedule: Q04DX003 (ip), vehicle: saline): -15 % of control
T/C (dose: 3.33 mg/kg/injection, schedule: Q04DX003 (sc), vehicle: saline): 7 % of control
T/C (dose: 4.0 mg/kg/injection, schedule: Q01DX010 (ip), vehicle: saline): -91 % of control
T/C (dose: 4.0 mg/kg/injection, schedule: Q01DX010 (sc), vehicle: suspension in saline): -100 % of control
T/C (dose: 6.0 mg/kg/injection, schedule: Q04DX003 (sc), vehicle: suspension in saline): -72 % of control and -58 % of control
T/C (dose: 6.65 mg/kg/injection, schedule: Q04DX003 (ip), vehicle: saline): -87 % of control
T/C (dose: 6.65 mg/kg/injection, schedule: Q04DX003 (sc), vehicle: saline): -51 % of control
T/C (dose: 12.0 mg/kg/injection, schedule: Q04DX003 (sc), vehicle: saline): -100 % of control
T/C (dose: 12.0 mg/kg/injection, schedule: Q04DX003 (sc), vehicle: suspension in saline): -100 % of control

C=C1N(C)c2ccccc2C1(C)C
T/C (dose: 25.0 mg/kg/injection, schedule: Q04DX003 (sc), vehicle: saline with Tween-80): 100 % of control
T/C (dose: 50.0 mg/kg/injection, schedule: Q04DX003 (sc), vehicle: saline with Tween-80): 75 % of control

CCC1CCCCN1C(=S)N/N=C(\C)c1ccccn1 (stereo not drawn)
T/C (dose: 18.75 mg/kg/injection, schedule: Q04DX003 (sc), vehicle: saline with Tween-80): 53 % of control
T/C (dose: 37.5 mg/kg/injection, schedule: Q04DX003 (sc), vehicle: saline with Tween-80): 97 % of control
T/C (dose: 75.0 mg/kg/injection, schedule: Q04DX003 (sc), vehicle: saline with Tween-80): 82 % of control

CCCCNC(C)C1(O)Cc2c(O)c3c(c(O)c2C(OC2CC(N)C(O)C(C)O2)C1)C(=O)c1c(OC)cccc1C3=O (stereo not drawn)
T/C (dose: 100.0 mg/kg/injection, schedule: Q01DX010 (sc), vehicle: water): 115 % of control
T/C (dose: 200.0 mg/kg/injection, schedule: Q01DX010 (sc), vehicle: water): 75 % of control

O=[Te]=O
T/C (dose: 12.5 mg/kg/injection, schedule: Q04DX003 (sc), vehicle: suspension in saline): 91 % of control
T/C (dose: 25.0 mg/kg/injection, schedule: Q04DX003 (sc), vehicle: suspension in saline): 79 % of control
T/C (dose: 50.0 mg/kg/injection, schedule: Q04DX003 (sc), vehicle: suspension in saline): 122 % of control
